In US20260241012A1, “1,8-NAPHTHYRIDIN-2-ONE HETEROBIFUNCTIONAL BCL6 DEGRADERS” (Treeline Biosciences, Inc., priority 2022, published 2026):

Molecular target: T1, N-terminal HiBiT tagged BCL6 (Homo sapiens, UniProt P41182)
T1 construct: expressed in transfected cells; host or cells: HT1080 (ATCC CCL-121), stably transduced with lentivirus pLV-UBC-N-HiBiT-BCL6-PGK-puro
Assay: HiBiT based degradation assay
Format: cell-based
Conditions: HT1080 cells expressing N-terminal HiBiT tagged BCL6, 5 hours of incubation; for Ymin (5 hr): BCL6 degradation normalized with DMSO control; for DC50: four-parameter logistic model, read-out: EC50 (5 hr)
Procedure, shortened: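 Degradation measured by luminescence from the Nano-Glo HiBiT lytic reagent (15 min, room temperature), normalized to DMSO controls and fitted to a four-parameter curve.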

Ymin (5 hr)	DC50 [nM]	Compound
+++ (30% ≤ Ymin < 50%)	100 to 1000	CNC(=O)COc1cc2cc(Nc3nc(N4CCN(CC5CCN(c6cccc7c(C8CCC(=O)NC8=O)nn(C)c67)CC5)[C@@H](C(F)(F)F)C4)ncc3Cl)cnc2n(C(C)C)c1=O (stereo partly drawn) [Compound 163a, 2-[[6-[[5-chloro-2-[(3R)-4-[[1-[3-(2,6-dioxo-3-piperidyl)-1-methyl-indazol-7-yl]-4-piperidyl]methyl]-3-(trifluoromethyl)piperazin-1-yl]pyrimidin-4-yl]amino]-1-isopropyl-2-oxo-1,8-naphthyridin-3-yl]oxy]-N-methyl-acetamide]
+++ (30% ≤ Ymin < 50%)	< 10	CNC(=O)COc1cc2cc(Nc3nc(N4CCC(Oc5ccc6c(C7CCC(=O)NC7=O)nn(C)c6c5)CC4)ncc3Cl)cnc2n(C(C)C)c1=O (stereo not shown) [Compound 164, 2-[[6-[[5-chloro-2-[4-[3-(2,6-dioxo-3-piperidyl)-1-methyl-indazol-6-yl]oxy-1-piperidyl]pyrimidin-4-yl]amino]-1-isopropyl-2-oxo-1,8-naphthyridin-3-yl]oxy]-N-methyl-acetamide]
++ (50% ≤ Ymin < 70%)	< 10	CNC(=O)COc1cc2cc(Nc3nc(N4CCN(c5ccc6c(C7CCC(=O)NC7=O)nn(C)c6c5)CC4)ncc3Cl)cnc2n(C(C)C)c1=O (stereo not shown) [Compound 165, 2-[[6-[[5-chloro-2-[4-[3-(2,6-dioxo-3-piperidyl)-1-methyl-indazol-6-yl]piperazin-1-yl]pyrimidin-4-yl]amino]-1-isopropyl-2-oxo-1,8-naphthyridin-3-yl]oxy]-N-methyl-acetamide]
+++ (30% ≤ Ymin < 50%)	< 10	CNC(=O)COc1cc2cc(Nc3nc(N4CCN(c5cccc6c(C7CCC(=O)NC7=O)nn(C)c56)CC4)ncc3Cl)cnc2n(C(C)C)c1=O (stereo not shown) [Compound 166, 2-[[6-[[5-chloro-2-[4-[3-(2,6-dioxo-3-piperidyl)-1-methyl-indazol-7-yl]piperazin-1-yl]pyrimidin-4-yl]amino]-1-isopropyl-2-oxo-1,8-naphthyridin-3-yl]oxy]-N-methyl-acetamide]
++++ (Ymin < 30%)	< 10	CNC(=O)COc1cc2cc(Nc3nc(N4CCC(F)(CN5CCC(c6ccc7c(C8CCC(=O)NC8=O)nn(C)c7c6)CC5)CC4)ncc3Cl)cnc2n(C(C)C)c1=O (stereo not shown) [Compound 167, 2-[[6-[[5-chloro-2-[4-[[4-[3-(2,6-dioxo-3-piperidyl)-1-methyl-indazol-6-yl]-1-piperidyl]methyl]-4-fluoro-1-piperidyl]pyrimidin-4-yl]amino]-1-isopropyl-2-oxo-1,8-naphthyridin-3-yl]oxy]-N-methyl-acetamide]
+++ (30% ≤ Ymin < 50%)	10 to 100	CNC(=O)COc1cc2cc(Nc3nc(N4CCN(CC5CCN(c6cccc7c(C8CCC(=O)NC8=O)nn(C)c67)CC5)C[C@@H]4C)ncc3Cl)cnc2n(C(C)C)c1=O (stereo partly drawn) [Compound 168a, 2-[[6-[[5-chloro-2-[(2S)-4-[[1-[3-(2,6-dioxo-3-piperidyl)-1-methyl-indazol-7-yl]-4-piperidyl]methyl]-2-methyl-piperazin-1-yl]pyrimidin-4-yl]amino]-1-isopropyl-2-oxo-1,8-naphthyridin-3-yl]oxy]-N-methyl-acetamide]
+++ (30% ≤ Ymin < 50%)	10 to 100	CNC(=O)COc1cc2cc(Nc3nc(N4CCN(CC5CCN(c6cccc7c(C8CCC(=O)NC8=O)nn(C)c67)CC5)C[C@H]4C)ncc3Cl)cnc2n(C(C)C)c1=O (stereo partly drawn) [Compound 168b, 2-[[6-[[5-chloro-2-[(2R)-4-[[1-[3-(2,6-dioxo-3-piperidyl)-1-methyl-indazol-7-yl]-4-piperidyl]methyl]-2-methyl-piperazin-1-yl]pyrimidin-4-yl]amino]-1-isopropyl-2-oxo-1,8-naphthyridin-3-yl]oxy]-N-methyl-acetamide]
++++ (Ymin < 30%)	< 10	CNC(=O)COc1cc2cc(Nc3nc(N4CCC(CN5CCN(c6cccc7c(C8CCC(=O)NC8=O)nn(C)c67)[C@@H](C)C5)CC4)ncc3Cl)cnc2n(C(C)C)c1=O (stereo partly drawn) [Compound 169a, 2-((6-((5-chloro-2-(4-(((3S)-4-(3-(2,6-dioxopiperidin-3-yl)-1-methyl-1H-indazol-7-yl)-3-methylpiperazin-1-yl)methyl)piperidin-1-yl)pyrimidin-4-yl)amino)-1-isopropyl-2-oxo-1,2-dihydro-1,8-naphthyridin-3-yl)oxy)-N-methylacetamide]
++++ (Ymin < 30%)	< 10	CNC(=O)COc1cc2cc(Nc3nc(N4CCC(CN5CCN(c6cccc7c(C8CCC(=O)NC8=O)nn(C)c67)[C@H](C)C5)CC4)ncc3Cl)cnc2n(C(C)C)c1=O (stereo partly drawn) [Compound 169b, 2-((6-((5-chloro-2-(4-(((3R)-4-(3-(2,6-dioxopiperidin-3-yl)-1-methyl-1H-indazol-7-yl)-3-methylpiperazin-1-yl)methyl)piperidin-1-yl)pyrimidin-4-yl)amino)-1-isopropyl-2-oxo-1,2-dihydro-1,8-naphthyridin-3-yl)oxy)-N-methylacetamide]
++++ (Ymin < 30%)	10 to 100	CNC(=O)COc1cc2cc(Nc3nc(N4CCN(CC5CCN(c6cccc7c(C8CCC(=O)NC8=O)nn(C)c67)CC5)CC4)ncc3Cl)cnc2n(CC(F)(F)F)c1=O (stereo not shown) [Compound 170, 2-[[6-[[5-chloro-2-[4-[[1-[3-(2,6-dioxo-3-piperidyl)-1-methyl-indazol-7-yl]-4-piperidyl]methyl]piperazin-1-yl]pyrimidin-4-yl]amino]-2-oxo-1-(2,2,2-trifluoroethyl)-1,8-naphthyridin-3-yl]oxy]-N-methyl-acetamide]
++ (50% ≤ Ymin < 70%)	< 10	CNC(=O)COc1cc2cc(Nc3nc(N4CCC(C(C)(C)N5CCN(c6ccc7c(C8CCC(=O)NC8=O)nn(C)c7c6)CC5)CC4)ncc3Cl)cnc2n(C(C)C)c1=O (stereo not shown) [Compound 171, 2-[[6-[[5-chloro-2-[4-[1-[4-[3-(2,6-dioxo-3-piperidyl)-1-methyl-indazol-6-yl]piperazin-1-yl]-1-methyl-ethyl]-1-piperidyl]pyrimidin-4-yl]amino]-1-isopropyl-2-oxo-1,8-naphthyridin-3-yl]oxy]-N-methyl-acetamide]
+++ (30% ≤ Ymin < 50%)	10 to 100	CNC(=O)COc1cc2cc(Nc3nc(N4CCN(CC5CCN(c6cccc7c(C8CCC(=O)NC8=O)nn(C)c67)CC5)C(C)(C)C4)ncc3Cl)cnc2n(C(C)C)c1=O (stereo not shown) [Compound 172, 2-[[6-[[5-chloro-2-[4-[[1-[3-(2,6-dioxo-3-piperidyl)-1-methyl-indazol-7-yl]-4-piperidyl]methyl]-3,3-dimethyl-piperazin-1-yl]pyrimidin-4-yl]amino]-1-isopropyl-2-oxo-1,8-naphthyridin-3-yl]oxy]-N-methyl-acetamide]
++ (50% ≤ Ymin < 70%)	< 10	CNC(=O)COc1cc2cc(Nc3nc(N4C[C@H]5C[C@@H]4CN5CC4CCN(c5cccc6c(C7CCC(=O)NC7=O)nn(C)c56)CC4)ncc3Cl)cnc2n(C(C)C)c1=O (stereo partly drawn) [Compound 174a, 2-[[6-[[5-chloro-2-[(1R,4R)-5-[[1-[3-(2,6-dioxo-3-piperidyl)-1-methyl-indazol-7-yl]-4-piperidyl]methyl]-2,5-diazabicyclo[2.2.1]heptan-2-yl]pyrimidin-4-yl]amino]-1-isopropyl-2-oxo-1,8-naphthyridin-3-yl]oxy]-N-methyl-acetamide]
+++ (30% ≤ Ymin < 50%)	10 to 100	CNC(=O)COc1cc2cc(Nc3nc(N4C[C@@H]5C[C@H]4CN5CC4CCN(c5cccc6c(C7CCC(=O)NC7=O)nn(C)c56)CC4)ncc3Cl)cnc2n(C(C)C)c1=O (stereo partly drawn) [Compound 174b, 2-[[6-[[5-chloro-2-[(1S,4S)-5-[[1-[3-(2,6-dioxo-3-piperidyl)-1-methyl-indazol-7-yl]-4-piperidyl]methyl]-2,5-diazabicyclo[2.2.1]heptan-2-yl]pyrimidin-4-yl]amino]-1-isopropyl-2-oxo-1,8-naphthyridin-3-yl]oxy]-N-methyl-acetamide]
+++ (30% ≤ Ymin < 50%)	< 10	CNC(=O)COc1cc2cc(Nc3nc(N4CCC(CN5C[C@H]6C[C@@H]5CN6c5cccc6c(C7CCC(=O)NC7=O)nn(C)c56)CC4)ncc3Cl)cnc2n(C(C)C)c1=O (stereo partly drawn) [Compound 175a, 2-[[6-[[5-chloro-2-[4-[[(1R,4R)-5-[3-(2,6-dioxo-3-piperidyl)-1-methyl-indazol-7-yl]-2,5-diazabicyclo[2.2.1]heptan-2-yl]methyl]-1-piperidyl]pyrimidin-4-yl]amino]-1-isopropyl-2-oxo-1,8-naphthyridin-3-yl]oxy]-N-methyl-acetamide]
+++ (30% ≤ Ymin < 50%)	< 10	CNC(=O)COc1cc2cc(Nc3nc(N4CCC(CN5C[C@@H]6C[C@H]5CN6c5cccc6c(C7CCC(=O)NC7=O)nn(C)c56)CC4)ncc3Cl)cnc2n(C(C)C)c1=O (stereo partly drawn) [Compound 175b, 2-[[6-[[5-chloro-2-[4-[[(1S,4S)-5-[3-(2,6-dioxo-3-piperidyl)-1-methyl-indazol-7-yl]-2,5-diazabicyclo[2.2.1]heptan-2-yl]methyl]-1-piperidyl]pyrimidin-4-yl]amino]-1-isopropyl-2-oxo-1,8-naphthyridin-3-yl]oxy]-N-methyl-acetamide]

Compound	Ymin (5 hr)	DC50 [nM]
CNC(=O)COc1cc2cc(Nc3nc(N4C5CC4CN(CC4CCN(c6cccc7c(C8CCC(=O)NC8=O)nn(C)c67)CC4)C5)ncc3Cl)cnc2n(C(C)C)c1=O (stereo not shown) [Compound 173, 2-[[6-[[5-chloro-2-[3-[[1-[3-(2,6-dioxo-3-piperidyl)-1-methyl-indazol-7-yl]-4-piperidyl]methyl]-3,6-diazabicyclo[3.1.1]heptan-6-yl]pyrimidin-4-yl]amino]-1-isopropyl-2-oxo-1,8-naphthyridin-3-yl]oxy]-N-methyl-acetamide]	++ (50% ≤ Ymin < 70%)	10 to 100
